pIC50: −log10 of the molar value.
Target: HSD17B13 (Homo sapiens (Human), UniProt Q7Z5P4)
Test: HSD17B13 enzymatic inhibition assay (150 nM or 50 nM HSD17B13)
Type: biochemical
Settings: 50 nM HSD17B13; read-out: Inhibition of 50 nM of HSD17B13 IC50

Sequence of HSD17B13 (Q7Z5P4 other isoform, or with tags, fused parts or gaps): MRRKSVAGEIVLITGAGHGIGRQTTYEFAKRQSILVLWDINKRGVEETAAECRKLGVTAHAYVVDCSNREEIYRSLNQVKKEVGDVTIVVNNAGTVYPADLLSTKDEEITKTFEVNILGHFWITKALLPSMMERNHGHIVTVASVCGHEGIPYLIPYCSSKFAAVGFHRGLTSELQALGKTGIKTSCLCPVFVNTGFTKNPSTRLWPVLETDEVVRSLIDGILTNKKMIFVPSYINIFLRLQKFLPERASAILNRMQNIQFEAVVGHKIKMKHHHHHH

pIC50	SMILES
5.53	Cc1ccc([C@H](NC(=O)c2ccc(C(F)(F)F)[nH]c2=O)[C@@H]2CCCOC2)cc1 [Compound 397, 2-oxo-N—((R)—((S)-tetrahydro-2H-pyran-3-yl)(p-tolyl)methyl)-6-(trifluoromethyl)-1,2-dihydropyridine-3-carboxamide]
5.21	Cc1ccc([C@H](NC(=O)c2ccc(C(F)(F)F)[nH]c2=O)[C@H]2CCCOC2)cc1 [Compound 398, 2-oxo-N—((R)—((R)-tetrahydro-2H-pyran-3-yl)(p-tolyl)methyl)-6-(trifluoromethyl)-1,2-dihydropyridine-3-carboxamide]
6.52	CC1CCC(C(NC(=O)c2ccc(C(F)(F)F)[nH]c2=O)c2ccccc2)CC1 (stereo not shown) [Compound 399, N-((4-methylcyclohexyl)(phenyl)methyl)-2-oxo-6-(trifluoromethyl)-1,2-dihydropyridine-3-carboxamide]
6.64	Cc1ccc(C(NC(=O)c2ccc(C(F)(F)F)[nH]c2=O)C2CCC(C)CC2)cc1 (stereo not shown) [Compound 400, N-((4-methylcyclohexyl)(p-tolyl)methyl)-2-oxo-6-(trifluoromethyl)-1,2-dihydropyridine-3-carboxamide]
6.44	CCCC(NC(=O)c1ccc(C(F)(F)F)[nH]c1=O)c1ccc(C)cc1 (stereo not shown) [Compound 402, 2-oxo-N-(1-(p-tolyl)butyl)-6-(trifluoromethyl)-1,2-dihydropyridine-3-carboxamide]
6.96	CCCC1CC(NC(=O)c2ccc(C(F)(F)F)[nH]c2=O)c2cc(C)ccc2O1 (stereo not shown) [Compound 403, N-(6-methyl-2-propylchroman-4-yl)-2-oxo-6-(trifluoromethyl)-1,2-dihydropyridine-3-carboxamide]
6.66	CCC1CC(NC(=O)c2ccc(C(F)(F)F)[nH]c2=O)c2cc(C)ccc2O1 (stereo not shown) [Compound 404, N-(2-ethyl-6-methylchroman-4-yl)-2-oxo-6-(trifluoromethyl)-1,2-dihydropyridine-3-carboxamide]
5.61	Cc1ccc2c(c1)C(NC(=O)c1ccc(C(F)(F)F)[nH]c1=O)CO2 (stereo not shown) [Compound 408, N-(5-methyl-2,3-dihydrobenzofuran-3-yl)-2-oxo-6-(trifluoromethyl)-1,2-dihydropyridine-3-carboxamide]
6.37	COc1ccc2c(c1)Sc1cc(N)ccc1C2NC(=O)c1ccc(C(F)F)[nH]c1=O (stereo not shown) [Compound 410, N-(3-amino-6-methoxy-9H-thioxanthen-9-yl)-6-(difluoromethyl)-2-oxo-1,2-dihydropyridine-3-carboxamide]
7.10	COc1ccc2c(c1)Sc1cc(N)ccc1C2NC(=O)c1ccc(C(F)(F)F)[nH]c1=O (stereo not shown) [Compound 411, N-(3-amino-6-methoxy-9H-thioxanthen-9-yl)-2-oxo-6-(trifluoromethyl)-1,2-dihydropyridine-3-carboxamide]
6.96	Cc1ccc(C(CC2CCCC2)NC(=O)c2ccc(C(F)(F)F)[nH]c2=O)cc1 (stereo not shown) [Compound 412, N-(2-cyclopentyl-1-(p-tolyl)ethyl)-2-oxo-6-(trifluoromethyl)-1,2-dihydropyridine-3-carboxamide]
6.06	O=C(NC1c2cc(OC(F)(F)F)ccc2-c2ccc(OC(F)(F)F)cc21)c1ccc(C(F)(F)F)[nH]c1=O [Compound 413, N-(2,7-bis(trifluoromethoxy)-9H-fluoren-9-yl)-2-oxo-6-(trifluoromethyl)-1,2-dihydropyridine-3-carboxamide]
7.30	COc1ccc2c(c1)C(NC(=O)c1ccc(C(F)(F)F)[nH]c1=O)c1cc(OC)ccc1-2 [Compound 415, N-(2,7-dimethoxy-9H-fluoren-9-yl)-2-oxo-6-(trifluoromethyl)-1,2-dihydropyridine-3-carboxamide]
7.15	Cc1ccc2c(c1)C(NC(=O)c1ccc(C(F)(F)F)[nH]c1=O)c1cc(C)ccc1-2 [Compound 418, N-(2,7-dimethyl-9H-fluoren-9-yl)-2-oxo-6-(trifluoromethyl)-1,2-dihydropyridine-3-carboxamide]
6.89	CNc1ccc(C(NC(=O)c2ccc(C(F)(F)F)[nH]c2=O)c2ccc(C)cc2)cc1 (stereo not shown) [Compound 420, N-((4-(methylamino)phenyl)(p-tolyl)methyl)-2-oxo-6-(trifluoromethyl)-1,2-dihydropyridine-3-carboxamide]
6.10	CC(F)(F)c1ccc(C(=O)NC2c3ccccc3Sc3ccccc32)c(=O)[nH]1 [Compound 423, 6-(1,1-difluoroethyl)-2-oxo-N-(9H-thioxanthen-9-yl)-1,2-dihydropyridine-3-carboxamide]
5.94	CC(F)(F)c1ccc(C(=O)NC2c3ccccc3Oc3ccccc32)c(=O)[nH]1 [Compound 424, 6-(1,1-difluoroethyl)-2-oxo-N-(9H-xanthen-9-yl)-1,2-dihydropyridine-3-carboxamide]

pIC50	SMILES
6.57	Cc1ccc2c(c1)S(=O)(=O)c1cc(C)ccc1C2NC(=O)c1cc(N2CCNCC2)c(C(F)(F)F)[nH]c1=O [Compound 425, N-(3,6-dimethyl-10,10-dioxido-9H-thioxanthen-9-yl)-2-oxo-5-(piperazin-1-yl)-6-(trifluoromethyl)-1,2-dihydropyridine-3-carboxamide]
6.89	Cc1ccc2c(c1)Sc1cc(C)ccc1C2NC(=O)c1cc(N2CCN(C)CC2)c(C(F)(F)F)[nH]c1=O [Compound 427, N-(3,6-dimethyl-9H-thioxanthen-9-yl)-5-(4-methylpiperazin-1-yl)-2-oxo-6-(trifluoromethyl)-1,2-dihydropyridine-3-carboxamide]
7.70	Cc1ccc2c(c1)S(=O)(=O)c1cc(C)ccc1C2NC(=O)c1cc(NC2CCCCC2)c(C(F)(F)F)[nH]c1=O [Compound 428, 5-(cyclohexylamino)-N-(3,6-dimethyl-10,10-dioxido-9H-thioxanthen-9-yl)-2-oxo-6-(trifluoromethyl)-1,2-dihydropyridine-3-carboxamide]
6.49	Cc1ccc2c(c1)Oc1cc(C)ccc1C2NC(=O)c1cc(CN2CCNCC2)c(C(F)(F)F)[nH]c1=O [Compound 429, N-(3,6-dimethyl-9H-xanthen-9-yl)-2-oxo-5-(piperazin-1-ylmethyl)-6-(trifluoromethyl)-1,2-dihydropyridine-3-carboxamide]
7.40	Cc1ccc2c(c1)Oc1cc(C)ccc1C2NC(=O)c1cc(N2CCN(Cc3ccccc3)CC2)c(C(F)(F)F)[nH]c1=O [Compound 430, 5-(4-benzylpiperazin-1-yl)-N-(3,6-dimethyl-9H-xanthen-9-yl)-2-oxo-6-(trifluoromethyl)-1,2-dihydropyridine-3-carboxamide]
6.89	Cc1ccc2c(c1)Sc1cc(C)ccc1C2NC(=O)c1cc(NC2CCCCC2)c(C(F)(F)F)[nH]c1=O [Compound 431, 5-(cyclohexylamino)-N-(3,6-dimethyl-9H-thioxanthen-9-yl)-2-oxo-6-(trifluoromethyl)-1,2-dihydropyridine-3-carboxamide]
6.48	Cc1ccc2c(c1)Sc1cc(C)ccc1C2NC(=O)c1cc(N2CCNCC2)c(C(F)(F)F)[nH]c1=O [Compound 432, N-(3,6-dimethyl-9H-thioxanthen-9-yl)-2-oxo-5-(piperazin-1-yl)-6-(trifluoromethyl)-1,2-dihydropyridine-3-carboxamide]
6.14	Cc1ccc2c(c1)Oc1cc(C)ccc1C2NC(=O)c1cc(NC2CCNCC2)c(C(F)(F)F)[nH]c1=O [Compound 433, N-(3,6-dimethyl-9H-xanthen-9-yl)-2-oxo-5-(piperidin-4-ylamino)-6-(trifluoromethyl)-1,2-dihydropyridine-3-carboxamide]
6.96	Cc1ccc2c(c1)Oc1cc(C)ccc1C2NC(=O)c1cc(N2CCNCC2)c(C(F)(F)F)[nH]c1=O [Compound 434, N-(3,6-dimethyl-9H-xanthen-9-yl)-2-oxo-5-(piperazin-1-yl)-6-(trifluoromethyl)-1,2-dihydropyridine-3-carboxamide]
5.89	Cc1ccc2c(c1)Oc1cccc(C)c1C2NC(=O)c1cc(N2CCCCC2)c(C(F)(F)F)[nH]c1=O (stereo not shown) [Compound 437, N-(1,6-dimethyl-9H-xanthen-9-yl)-2-oxo-5-(piperidin-1-yl)-6-(trifluoromethyl)-1,2-dihydropyridine-3-carboxamide]
6.25	Cc1ccc2c(c1)Oc1cccc(C)c1C2NC(=O)c1cc(N2CCOCC2)c(C(F)(F)F)[nH]c1=O (stereo not shown) [Compound 439, N-(1,6-dimethyl-9H-xanthen-9-yl)-5-morpholino-2-oxo-6-(trifluoromethyl)-1,2-dihydropyridine-3-carboxamide]
6.15	COCCOc1ccc2c(c1)Oc1ccccc1C2NC(=O)c1ccc(C(F)(F)F)[nH]c1=O (stereo not shown) [Compound 440, N-(3-(2-methoxyethoxy)-9H-xanthen-9-yl)-2-oxo-6-(trifluoromethyl)-1,2-dihydropyridine-3-carboxamide]
5.59	Cc1ccc(C(NC(=O)c2ccc(C(F)(F)F)[nH]c2=O)c2ccccc2)c(S(C)(=O)=O)c1 (stereo not shown) [Compound 442, N-((4-methyl-2-(methylsulfonyl)phenyl)(phenyl)methyl)-2-oxo-6-(trifluoromethyl)-1,2-dihydropyridine-3-carboxamide]
6.92	CCc1ccc(C(NC(=O)c2ccc(C(F)(F)F)[nH]c2=O)c2ccc(C)cc2)cc1 (stereo not shown) [Compound 443, N-((4-ethylphenyl)(p-tolyl)methyl)-2-oxo-6-(trifluoromethyl)-1,2-dihydropyridine-3-carboxamide]
6.77	CCc1cccc(C(NC(=O)c2ccc(C(F)(F)F)[nH]c2=O)c2ccc(C)cc2)c1 (stereo not shown) [Compound 444, N-((3-ethylphenyl)(p-tolyl)methyl)-2-oxo-6-(trifluoromethyl)-1,2-dihydropyridine-3-carboxamide]
6.57	COc1cccc(C(NC(=O)c2ccc(C(F)(F)F)[nH]c2=O)c2ccc(C)cc2)c1 (stereo not shown) [Compound 446, N-((3-methoxyphenyl)(p-tolyl)methyl)-2-oxo-6-(trifluoromethyl)-1,2-dihydropyridine-3-carboxamide]
6.80	COc1ccc(C(NC(=O)c2ccc(C(F)(F)F)[nH]c2=O)c2ccc(C)cc2)cc1 (stereo not shown) [Compound 447, N-((4-methoxyphenyl)(p-tolyl)methyl)-2-oxo-6-(trifluoromethyl)-1,2-dihydropyridine-3-carboxamide]

From patent US11957687B2 (REGENERON PHARMACEUTICALS, INC., priority 2019, dated 2024)
